# Literature values as cited in US9463189B2 (BPV Holdings, LLC, priority 2007, dated 2016).
# Structures can show the parent of a compound that is named as a salt.
# Assays:
# [1] = system: PPAR; conditions: shown in US2006/0167012A1 and US2006/0205736A1; cited from earlier work
# [2] = system: methionine- and choline-deficient diet model of NASH; conditions: Nagasawa T et al., Eur. J. Pharmacol. (2006); cited from earlier work
# [3] = system: genetically obese rodent model; conditions: Gary-Bobo, M. et al., Hepatology 2007; cited from earlier work
smiles,measurement,setting,value
"C[C@@H]1CN(c2ccc(OC(F)(F)F)cc2)C[C@H](C)N1S(=O)(=O)c1cccc2c1C[C@@H](C(=O)O)C2 [Compound 1, (S)-4-[cis-2,6-Dimethyl-4-(4-trifluoromethoxy-phenyl)-piperazine-1-sulfonyl]-indan-2-carboxylic acid tosylate]",PPAR modulator activity,[1],PPAR modulators
Cc1cc(SCc2sc(-c3ccc(C(F)(F)F)cc3)nc2C)ccc1OCC(=O)O [GW501516],fatty acid β-oxidation,[2],increased
same,hepatic steatosis,[2],improved hepatic steatosis
same,hepatic triglyceride deposition,[2],decreased
same,inflammation,[2],decreased
same,inflammatory cytokines or chemokines,[2],decreased
same,number of activated hepatic stellate cells,[2],decreased
Cc1c(C(=O)NN2CCCCC2)nn(-c2ccc(Cl)cc2Cl)c1-c1ccc(Cl)cc1 [rimonabant],outcome in genetically obese rodent model,[3],positive outcome
